According to article PMC7308271, “Discovery of a new class of orthosteric antagonists with nanomolar potency at extrasynaptic GABAA receptors” (Scientific Reports, 2020):
Where two headings read alike, the source gives them in different places.

Molecular target: T1, human α1β2δ GABAΑ receptor (Homo sapiens, UniProt P14867+P47870)
T1 construct: expressed in transfected cells; host or cells: δ-HEK (HEK293 Flp-In stably expressing human δ), transiently transfected with α and β 1:1
T1 sequence (P14867 28-456): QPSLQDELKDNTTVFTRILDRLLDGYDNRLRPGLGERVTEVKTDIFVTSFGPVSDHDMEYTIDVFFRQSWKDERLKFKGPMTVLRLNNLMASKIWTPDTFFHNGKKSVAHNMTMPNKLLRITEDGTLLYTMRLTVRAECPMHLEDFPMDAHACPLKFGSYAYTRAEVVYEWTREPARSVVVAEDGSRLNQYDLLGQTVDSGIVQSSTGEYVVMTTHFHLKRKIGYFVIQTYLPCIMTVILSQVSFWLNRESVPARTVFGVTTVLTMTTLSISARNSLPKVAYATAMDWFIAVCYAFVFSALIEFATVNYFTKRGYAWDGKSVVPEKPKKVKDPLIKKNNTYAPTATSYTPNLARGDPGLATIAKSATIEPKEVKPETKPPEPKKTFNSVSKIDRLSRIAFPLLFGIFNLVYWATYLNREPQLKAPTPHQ
T1 sequence (P47870 25-512 limits assumed): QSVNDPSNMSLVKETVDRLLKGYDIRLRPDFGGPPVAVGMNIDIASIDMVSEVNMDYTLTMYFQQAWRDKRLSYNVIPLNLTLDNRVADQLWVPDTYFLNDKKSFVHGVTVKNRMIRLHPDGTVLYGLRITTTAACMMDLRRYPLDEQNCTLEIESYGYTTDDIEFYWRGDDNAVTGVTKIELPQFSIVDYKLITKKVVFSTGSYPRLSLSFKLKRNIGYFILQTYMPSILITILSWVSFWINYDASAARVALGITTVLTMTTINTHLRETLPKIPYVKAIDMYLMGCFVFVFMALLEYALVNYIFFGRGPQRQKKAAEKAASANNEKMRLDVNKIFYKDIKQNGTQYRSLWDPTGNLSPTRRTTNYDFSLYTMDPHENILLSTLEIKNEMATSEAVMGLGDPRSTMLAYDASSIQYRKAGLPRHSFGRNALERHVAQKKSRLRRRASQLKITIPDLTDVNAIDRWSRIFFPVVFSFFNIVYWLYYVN
T1 sequence (O14764 25-452 partner): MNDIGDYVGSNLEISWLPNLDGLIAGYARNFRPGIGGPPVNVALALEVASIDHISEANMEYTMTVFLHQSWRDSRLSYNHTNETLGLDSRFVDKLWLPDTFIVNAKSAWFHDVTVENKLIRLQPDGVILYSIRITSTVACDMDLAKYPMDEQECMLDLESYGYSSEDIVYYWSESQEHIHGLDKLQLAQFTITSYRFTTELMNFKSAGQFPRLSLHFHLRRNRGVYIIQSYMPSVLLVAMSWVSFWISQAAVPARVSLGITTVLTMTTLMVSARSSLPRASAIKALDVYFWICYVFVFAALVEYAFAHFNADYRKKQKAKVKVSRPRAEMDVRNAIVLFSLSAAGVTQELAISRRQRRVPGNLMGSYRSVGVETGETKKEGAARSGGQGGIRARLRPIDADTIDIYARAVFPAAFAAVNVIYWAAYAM
Test: FMP assay at α1β2δ GABAA receptors in HEK cells
Assay type: cell-based
Description: HEK293 cells were maintained in DMEM containing GlutaMAX-I, supplemented with 10% FBS and 1% penicillin-streptomycin and incubated at 37 °C and a humidity of 5% CO2. For expression of δ-containing GABAΑ receptors, a HEK293 Flp-In^ΤΜ cell line stably expressing the human GABAΑ δ-subunits (referred to as δ-HEK) was used and the γ-containing subtypes was expressed in a background HEK293 Flp-In^ΤΜ cell line stably expressing the G-protein coupled peptide receptor NPBWR2 (referred to as HEK background)[26], both positively selected for using 200 μg/mL hygromycin B. α1β2γ2 receptors were stably expressed in a HEK293 cell line maintained as above but with no selection (gift from Marianne L. Jensen, Neurosearch).
To express recombinant GABAΑ receptors human α1, α2, α3, α5, α6, β2, γ2 (pcDNA3.1/Zeo) and α4, β1 (pUNIV)[26] subunit cDNA were transiently transfected into either δ-HEK or HEK background cells. δ-HEK cells were transfected with α- and β-subunits in a 1:1 ration whereas HEK background cells were transfected with α-, β- and γ-subunits in a 1:1:2 ratio. Human BGT1 (pcDNA5/FRT)[43] was transiently transfected into the δ-HEK cell line. δ-HEK cells transfected for whole-cell patch-clamp recordings were co-transfected with green fluorescent protein (GFP) as well as α- and β-subunits in a 0.5:1:1 ratio (0.8 μg + 1.6 μg + 1.6 μg in a 6 cm dish) in order to identify transfected cells. The transfection was carried out using Polyfect as transfection reagent according to the manufactures protocol expect for using half the recommended volume of Polyfect.
The FMP assay was performed as previously described with a few modifications. Briefly, HEK cells were transfected as described[26] and 16–20 hours later plated (50,000 cells/well in DMEM medium) into clear-bottomed black 96-well plates coated with poly-D-lysine and the assay performed 20–28 hours later. The assay protocol including the FMP blue dye incorporation into membranes was exactly as described in Falk-Petersen et al.[26]. […] Data was obtained as changes in fluorescence units (∆RFU) by measuring emission at 560 nm caused by excitation at 530 nm. Unless otherwise mentioned in the text or figure legends experiments were performed in at least three independent experiments each using three technical replicates. Due to an observed edge effect for the FMP assay, outer wells were not used except for the screening.
Data obtained in the FMP assay are given as relative changes in fluorescence units (ΔRFU) by subtracting the average of the baseline fluorescence signal from the peak fluorescence signal after compound addition. All raw traces were inspected manually and peak signals resulting from compound/buffer addition together with signal artefacts were omitted from the analysis.
The concentration-response curves obtained in the FMP assay for both agonists (determining EC50 values) and antagonists (determining IC50 values) were fitted using the four-parameter concentration-response model: Response=bottom+top−bottom/1+10^[(logEC50-A)⋅nH] EC/IC50 values describe the concentration resulting in the half-maximal response (halfway between top and bottom), and nΗ is the Hill coefficient. […] Gaddum Schild analysis was performed using GraphPad Prism version 8.2.1 (GraphPad Software Inc., San Diego, CA, USA). EC50/IC50 values obtained in the FMP assay are given as means ± SEM from at least three independent experiments with three technical replicates, as specified in the individual figure legends.

[1] = antagonist activity vs GABA EC80 10–14 μM, mean, read-out: IC50
[2] = vs GABA EC80, read-out: pIC50 ± SEM (converted)

| Compound | GABA EC80 (calculated from GABA potencies, used in antagonist tests) [µM] | IC50 [1] [µM] | IC50 [2] [µM] | potency reduction of 2027 compared to 018 [times] |
| --- | --- | --- | --- | --- |
| NCCCC(=O)O [GABA] | 10 to 14 |  |  |  |
| O=C(Nc1cccc(C(=O)N2CCC3(CCNCC3)CC2)c1)c1cccs1 [compound 018, N-(3-(3,9-diazaspiro[5.5]undecane-3-carbonyl)phenyl)thiophene-2-carboxamide] |  | 0.24 | 0.245 |  |
| CC(=O)Nc1cccc(C(=O)N2CCC3(CCNCC3)CC2)c1 [compound 2027, N-(3-(3,9-diazaspiro[5.5]undecane-3-carbonyl)phenyl)acetamide] |  | 6.68 | 6.76 | 28 |
